Results published in patent EP4786486A1, “PEPTIDES FOR TREATING CARDIAC DISEASES” (Universidad Complutense De Madrid, priority 2023, dated 2025).
Where no end group is shown, it is not given here.

Experiments:
[1] = tested on: dissociated cardiomyocytes from Sham and TAC mice; assay: Capacitance (cell size) of dissociated cardiomyocytes, murine TAC model of HFrEF; format: in vivo; conditions: TAC animals treated with DECA-11 (AAV9) vs. untreated TAC animals
Description: (§1) A murine model of CI with reduced ejection fraction (HFrEF) was used to analyse the effect of SEQ ID NO: 3 on the decrease in INa and IK1 caused by electrical remodelling associated with Cl. The mice are subjected to transverse aortic constriction (TAC) with ligation, and pressure overload leads to the occurrence of cardiac hypertrophy and Cl. The mice were produced at the Medical Research Centre of the University of Navarra (CIMA), under the direction of Dr Aránzazu González Miqueo.
(§2) Eight-week-old mice were administered 3.5×10^10 particles of adeno-associated virus type 9 that encoded either the fluorescent reporter td-Tomato (Aav-dt-T) alone, or the reporter and the peptide DECA-11. At 12 weeks of age, an echocardiographic check-up (baseline) was performed and at week 13 they underwent surgery in which the aorta was ligated (TAC animals) or not (Sham animals).
That same week they were sent to the UCM animal facility. Next, the mice were heparinised and anaesthetised and then sacrificed by cervical dislocation, at a rate of one per day, and a thoracotomy was performed to remove the heart which was mounted through the aorta into a cannula connected to a Langendorff apparatus for enzymatic dissociation of the cardiac myocytes. […]

human Nav1.5 channels [2] = biological target: T1, human Nav1.5 channels (Homo sapiens, UniProt Q14524); assay: INa density, whole-cell patch-clamp in CHO cells co-transfected with Nav1.5 and the cDNA encoding the peptide; format: cell-based; conditions: vs. cells transfected only with Nav1.5 channels, various membrane potentials, P<0.05
T1 construct: expressed in transfected cells; host or cells: CHO (Chinese hamster ovary) cells
Experimental: (§3) To analyse the effect of the peptides designed in example 1 on INa and IK1, the cDNA that encodes SEQ ID NO: 3 or SEQ ID NO: 4, described in SEQ ID NO: 5 and 20, respectively, was cloned into a pcDNA3.1^(+)® vector (Invitrogen) for transfection of Chinese hamster ovary (CHO) cells that were in turn transfected with the cDNA that encodes the human Nav1.5 channels (SEQ ID NO: 21). The CHO cells were further co-transfected with the EBO-pcD leu 2 vector (0.5 µg), which encodes the expression of the CD8 surface antigen. The subsequent addition of anti-CD8 antibody, bonded to Dynabeads M450® microspheres, allowed the cells that had been transfected to be identified. […] The currents were recorded at 20-22°C using an Axopatch 200B amplifier, filtered at half the sampling frequency and stored in a computer for further analysis. […] The capacitive current artefacts generated after the application of pulses from 0 mV to +10 mV were recorded at 50 kHz (filtered at 10 kHz) to calculate the capacitance of the cell, the access resistance and the input impedance. […] INa was recorded by applying 50 ms pulses from a holding potential of -120 mV to potentials between -80 and +50 mV in 5 mV increments. […]

[3] = tested on: dissociated cardiomyocytes from Sham and TAC mice; assay: IK1 density in dissociated cardiomyocytes, murine TAC model of HFrEF; format: in vivo; conditions: for IK1: administration of DECA-11 (AAV9)
Description: as §1, §2
That same week they were sent to the UCM animal facility. Next, the mice were heparinised and anaesthetised and then sacrificed by cervical dislocation, at a rate of one per day, and a thoracotomy was performed to remove the heart which was mounted through the aorta into a cannula connected to a Langendorff apparatus for enzymatic dissociation of the cardiac myocytes. After removal of the heart, said heart was cannulated through the aorta and placed in a Langendorff apparatus. First, the hearts were perfused with modified Tyrode's solution (composition in mM: 136 NaCI, 4 KCI, 2 MgCl2, 1.8 CaCl2, 10 HEPES, 10 glucose, 3 pyruvic acid and 0.1 thiamine, pH=7.4 with NaOH) bubbled with oxygen and at 37°C for 3-5 minutes. Subsequently, they were perfused for another 8 minutes with the same solution without CaCl2. After 1-2 minutes, the heart stops beating. Next, they were perfused with Tyrode's solution without CaCl2 supplemented with 120 u/ml collagenase type II from Worthington and 0.5 u/ml protease XIV from Sigma. […]
As indicated above, IK1 was also recorded in mouse cardiomyocytes from all four groups. […] In fact, the density of IK1 in TAC animals pretreated with DECA-11 is not different from that recorded in Sham animals.

human Nav1.5 channels [4] = assay: Density of INa by whole-cell patch-clamp in CHO cells co-transfected with the cDNA encoding the peptide; format: cell-based; conditions: CHO cells expressing Nav1.5 plus cDNA of the peptide, vs cells transfected only with Nav1.5 channels
Experimental: as §3

T1 sequence (Q14524 1-2015 isoform Q14524-2): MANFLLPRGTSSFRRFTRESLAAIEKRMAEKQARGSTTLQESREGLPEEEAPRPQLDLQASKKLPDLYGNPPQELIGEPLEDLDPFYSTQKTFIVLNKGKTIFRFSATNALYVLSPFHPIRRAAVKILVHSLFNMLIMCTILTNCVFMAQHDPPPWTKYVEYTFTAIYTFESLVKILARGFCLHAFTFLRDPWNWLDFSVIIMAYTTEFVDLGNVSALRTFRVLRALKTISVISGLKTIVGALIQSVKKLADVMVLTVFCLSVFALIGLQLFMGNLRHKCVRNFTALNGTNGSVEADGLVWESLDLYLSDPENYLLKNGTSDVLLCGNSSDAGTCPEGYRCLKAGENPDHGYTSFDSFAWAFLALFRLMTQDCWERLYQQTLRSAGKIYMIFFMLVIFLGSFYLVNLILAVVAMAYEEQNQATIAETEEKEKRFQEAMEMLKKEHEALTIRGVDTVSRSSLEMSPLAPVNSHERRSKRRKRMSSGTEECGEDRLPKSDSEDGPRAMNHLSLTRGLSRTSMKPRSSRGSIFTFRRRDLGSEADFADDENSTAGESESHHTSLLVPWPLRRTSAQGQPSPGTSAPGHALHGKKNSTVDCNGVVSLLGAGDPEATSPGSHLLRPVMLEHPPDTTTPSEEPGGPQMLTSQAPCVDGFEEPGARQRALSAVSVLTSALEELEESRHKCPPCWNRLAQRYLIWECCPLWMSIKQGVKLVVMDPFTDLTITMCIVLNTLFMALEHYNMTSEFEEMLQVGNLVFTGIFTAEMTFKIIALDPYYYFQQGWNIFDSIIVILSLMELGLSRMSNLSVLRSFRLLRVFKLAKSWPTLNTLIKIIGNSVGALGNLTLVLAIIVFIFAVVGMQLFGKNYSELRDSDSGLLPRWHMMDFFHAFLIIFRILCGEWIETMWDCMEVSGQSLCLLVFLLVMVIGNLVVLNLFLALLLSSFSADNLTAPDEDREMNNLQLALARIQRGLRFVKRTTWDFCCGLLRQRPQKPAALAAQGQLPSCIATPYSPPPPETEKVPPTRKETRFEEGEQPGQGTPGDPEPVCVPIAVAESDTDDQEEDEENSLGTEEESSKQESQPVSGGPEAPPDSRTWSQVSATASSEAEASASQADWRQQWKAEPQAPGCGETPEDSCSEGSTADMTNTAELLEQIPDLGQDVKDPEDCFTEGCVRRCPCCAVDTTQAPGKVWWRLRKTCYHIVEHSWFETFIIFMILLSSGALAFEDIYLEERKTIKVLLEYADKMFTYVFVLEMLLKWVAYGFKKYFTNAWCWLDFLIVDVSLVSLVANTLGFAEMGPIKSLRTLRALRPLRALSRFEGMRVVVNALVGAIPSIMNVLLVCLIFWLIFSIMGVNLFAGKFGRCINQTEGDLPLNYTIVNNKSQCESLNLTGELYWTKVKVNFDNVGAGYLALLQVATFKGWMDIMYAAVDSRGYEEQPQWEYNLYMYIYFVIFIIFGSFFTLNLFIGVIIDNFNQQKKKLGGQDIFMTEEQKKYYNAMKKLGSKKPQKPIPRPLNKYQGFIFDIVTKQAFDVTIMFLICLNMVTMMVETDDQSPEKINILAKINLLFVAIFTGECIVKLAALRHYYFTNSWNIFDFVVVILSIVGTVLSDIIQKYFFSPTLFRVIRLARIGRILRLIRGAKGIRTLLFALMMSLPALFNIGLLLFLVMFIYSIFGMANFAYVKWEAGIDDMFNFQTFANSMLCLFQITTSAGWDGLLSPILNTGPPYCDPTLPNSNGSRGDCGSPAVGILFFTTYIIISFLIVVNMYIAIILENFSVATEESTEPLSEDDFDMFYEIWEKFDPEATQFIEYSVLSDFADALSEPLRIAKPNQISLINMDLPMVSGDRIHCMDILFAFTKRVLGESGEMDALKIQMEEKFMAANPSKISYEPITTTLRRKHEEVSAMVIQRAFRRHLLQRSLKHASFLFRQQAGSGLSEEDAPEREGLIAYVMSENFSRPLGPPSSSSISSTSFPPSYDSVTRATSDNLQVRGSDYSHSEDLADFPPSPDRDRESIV

Row | Sequence | capacitance of myocytes [1] | density of INa (human Nav1.5 channels [2]) | IK1 ([3]; Sham animals) | density of IK1 compared with that recorded in Sham animals ([3]; TAC animals pretreated with DECA-11 vs. Sham animals) | IK1 ([3]; TAC animals) | density of INa (human Nav1.5 channels [4])
1 | RFTRESLAAIE (listed as Homo sapiens) [SEQ ID NO: 3, 11-amino acid peptide, amino acids 15-25 of human Nav1.5] | significantly lower | significantly increase | significantly increases | not different | significantly increases | –
2 | RFTRESLAAIE [DECA-11, RFTRESLAAIE] | – | – | – | – | – | significantly increase the density of INa
